In patent US10508109B2 (priority 2015, dated 2019) one finds IC50 data, which are given here for 14 molecules.

Like-named read-outs stand apart in the source and are kept apart here.

One assay deals with A549. In words: Cell-based assay, anti-proliferative activity (Cell Counting Kit-8, 72 hours). To be noted: Homo sapiens, read-out: IC50 (μM) A549. In outline: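 Following seeding into 96-well microtiter plates, the cells receive candidate inhibitors, and cellular growth is quantified at the end of the exposure period. An IC50 is computed for each compound.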
For orientation: Tetrazolium assays rely on reduction of a dye to a coloured formazan, in cell work by metabolically active cells.

The test system of another assay is CCD-18Co. Described as above. To be noted: Homo sapiens, read-out: IC50 (μM) CCD-18Co. A digest of the protocol: (§1)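 Growth inhibition is read by Cell Counting Kit-8 after three days of compound treatment. Test concentrations span 0, 1.5625, 3.125, 6.25, 12.5, 25, 50 and 100 micro-M, and IC50 serves as the anti-proliferative measure.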
The subject of another assay is HCT-116. The assay is described as above. Conditions: Homo sapiens, read-out: IC50 (μM) HCT-116. A digest of the protocol: as §1
The next assay has as its system HFL1. The description is as above. Conditions: Homo sapiens, read-out: IC50 (μM) HFL1. In outline: as §1
Another assay concerns PC14. The description is as above. Conditions: Homo sapiens, read-out: IC50 (μM) PC14. A digest of the protocol:
as §1

The target of a further assay is SUV39H2 (Homo sapiens (Human), UniProt Q9H5I1). Conditions: read-out: IC50 (μM) Suv 39H2 assay; enzyme assay.
Sequence of SUV39H2 (Q9H5I1 whole entry): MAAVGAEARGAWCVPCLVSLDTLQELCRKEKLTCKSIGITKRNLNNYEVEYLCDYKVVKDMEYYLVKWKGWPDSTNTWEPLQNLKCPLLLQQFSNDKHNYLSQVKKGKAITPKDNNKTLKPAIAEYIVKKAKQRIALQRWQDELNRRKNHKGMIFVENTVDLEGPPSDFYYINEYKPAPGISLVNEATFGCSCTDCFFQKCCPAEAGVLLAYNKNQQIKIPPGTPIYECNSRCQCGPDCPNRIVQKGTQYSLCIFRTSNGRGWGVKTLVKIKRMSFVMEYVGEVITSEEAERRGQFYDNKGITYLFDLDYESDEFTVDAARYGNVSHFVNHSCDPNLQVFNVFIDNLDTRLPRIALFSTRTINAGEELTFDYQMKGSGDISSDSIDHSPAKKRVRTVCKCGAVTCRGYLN
[1] abbreviates: A549 cells, 72 hours, Cell Counting Kit-8.
Where [2] appears, read: CCD-18Co cells, 72 hours, Cell Counting Kit-8.
Where [3] appears, read: HCT-116 cells, 72 hours, Cell Counting Kit-8.
The mark [4] stands for this setting: HFL1 cells, 72 hours, Cell Counting Kit-8.
Setting [5] is: PC-14, PC14 cells, 72 hours, Cell Counting Kit-8.

Turning to `COc1cc(C)c(-c2cn3ccc(N4CCN(S(=O)(=O)C5CC5)C(CO)C4)cc3n2)cc1Cl` (stereo not drawn) [Example 262, (4-(2-(5-chloro-4-methoxy-2-methylphenyl)imidazo[1,2-a]pyridin-7-yl)-1-(cyclopropylsulfonyl)piperazin-2-yl)methanol], the IC50 in the assay on A549 (setting [1]) worked out at 2.4 µM; in the assay with CCD-18Co (setting [2]), 5.5 µM; in the assay with HCT-116 (setting [3]), 3.2 µM; with HFL1 (setting [4]), 3.2 µM; in the assay on PC14 (setting [5]) it was 1.1 µM; on SUV39H2, 0.0453 µM.
With `COc1cc(OC)c(-c2cn3ccc(NC(=O)[C@@H]4CCCN4C)cc3n2)cc1Cl` [Example 263, (S)—N-(2-(5-chloro-2,4-dimethoxyphenyl)imidazo[1,2-a]pyridin-7-yl)-1-methylpyrrolidine-2-carboxamide], the IC50 in the assay on A549 (setting [1]) was 1.8 µM; in the assay on CCD-18Co (setting [2]) it was 1.4 µM; in the assay with HCT-116 (setting [3]), 0.99 µM; in the assay on HFL1 (setting [4]), 1.8 µM; with PC14 (setting [5]), 1.7 µM; on SUV39H2 it was 0.065 µM.
Regarding `COc1cc(C)c(-c2cn3ccc(N4CCN(S(=O)(=O)C5CC5)C(COCCN(C)C)C4)cc3n2)cc1Cl` (stereo not drawn) [Example 264, 2-((4-(2-(5-chloro-4-methoxy-2-methylphenyl)imidazo[1,2-a]pyridin-7-yl)-1-(cyclopropylsulfonyl)piperazin-2-yl)methoxy)-N,N-dimethylethanamine], the IC50 in the assay with A549 (setting [1]) was found to be 5.6 µM; with CCD-18Co (setting [2]), 5 µM; in the assay with HCT-116 (setting [3]), 8.5 µM; in the assay with HFL1 (setting [4]), 4.7 µM; with PC14 (setting [5]), 4.5 µM; at SUV39H2, 0.07 µM.
In the case of `COc1cc(OC)c(-c2cn3ccc(-c4ccc(C(=O)NCCCN)cc4)cc3n2)cc1Cl` [Example 265, N-(3-aminopropyl)-4-(2-(5-chloro-2,4-dimethoxyphenyl)imidazo-[1,2-a]pyridin-7-yl)benzamide], the IC50 with A549 (setting [1]) was 5.5 µM; with CCD-18Co (setting [2]), 7.3 µM; with HCT-116 (setting [3]), 5.2 µM; in the assay on HFL1 (setting [4]), 4.7 µM; with PC14 (setting [5]), 4.2 µM; at SUV39H2, 0.036 µM.
`CC[C@H](C)[C@H](NC)C(=O)Nc1ccn2cc(-c3cc(Cl)c(OC)cc3OC)nc2c1` [Example 266, (2S,3S)—N-(2-(5-chloro-2,4-dimethoxyphenyl)imidazo[1,2-a]pyridin-7-yl)-3-methyl-2-(methylamino)pentanamide]: the IC50 was determined as 1.5 µM in the assay with A549 (setting [1]); 1.3 µM in the assay with CCD-18Co (setting [2]); 2.8 µM with HCT-116 (setting [3]); 1.2 µM in the assay with HFL1 (setting [4]); 1.5 µM with PC14 (setting [5]); 0.0454 µM on SUV39H2.
For the molecule `COc1cc(OC)c(-c2cn3ccc(-c4ccc(C(=O)NCC5CCNCC5)cc4)cc3n2)cc1Cl` [Example 267, 4-(2-(5-chloro-2,4-dimethoxyphenyl)imidazo[1,2-a]pyridin-7-yl)-N-(piperidin-4-ylmethyl)benzamide], the IC50 turned out to be 10 µM with A549 (setting [1]); 10 µM in the assay with CCD-18Co (setting [2]); 10 µM in the assay on HCT-116 (setting [3]); 10 µM in the assay with HFL1 (setting [4]); 10 µM in the assay on PC14 (setting [5]); 0.0458 µM at SUV39H2.
For the molecule `COc1cc(OC)c(-c2cn3ccc(-c4ccc(C(=O)NC5CCNCC5)cc4)cc3n2)cc1Cl` [Example 268, 4-(2-(5-chloro-2,4-dimethoxyphenyl)imidazo[1,2-a]pyridin-7-yl)-N-(piperidin-4-yl)benzamide], the IC50 in the assay on A549 (setting [1]) is 4.3 µM; in the assay with CCD-18Co (setting [2]), 4.3 µM; with HCT-116 (setting [3]), 2.8 µM; in the assay with HFL1 (setting [4]) it was 3.8 µM; in the assay on PC14 (setting [5]), 3 µM; on SUV39H2, 0.0383 µM.
Regarding `COc1cc(OC)c(-c2cn3ccc(-c4ccc(C(=O)NCCNCCNC(=O)OC(C)(C)C)cc4)cc3n2)cc1Cl` [Example 269, tert-butyl (2-((2-(4-(2-(5-chloro-2,4-dimethoxyphenyl)imidazo[1,2-a]pyridin-7-yl)benzamido)ethyl)amino)ethyl)carbamate], the IC50 turned out to be 1.2 µM with A549 (setting [1]); 0.87 µM with CCD-18Co (setting [2]); 0.75 µM in the assay with HCT-116 (setting [3]); 1.3 µM in the assay with HFL1 (setting [4]); 0.94 µM in the assay on PC14 (setting [5]); 0.0408 µM on SUV39H2.
`COc1cc(OC)c(-c2cn3ccc(-c4ccc(NCc5ncc[nH]5)cc4)cc3n2)cc1Cl` [Example 270, N-((1H-imidazol-2-yl)methyl)-4-(2-(5-chloro-2,4-dimethoxyphenyl)-imidazo[1,2-a]pyridin-7-yl)aniline]: the IC50 in the assay on A549 (setting [1]) was 0.99 µM; in the assay with CCD-18Co (setting [2]) it was 1.7 µM; in the assay with HCT-116 (setting [3]), 1 µM; with HFL1 (setting [4]), 0.89 µM; with PC14 (setting [5]) it was 0.45 µM; on SUV39H2 it was 0.0199 µM.
As for `COc1cc(OC)c(-c2nc3cc(N4CCN(C(=O)OC(C)(C)C)CC4)ccn3c2Br)cc1Cl` [Example 271, tert-butyl 4-(3-bromo-2-(5-chloro-2,4-dimethoxy-phenyl)imidazo[1,2-a]pyridin-7-yl)piperazine-1-carboxylate], the IC50 in the assay on A549 (setting [1]) stood at 1.3 µM; in the assay with CCD-18Co (setting [2]), 1.4 µM; in the assay on HCT-116 (setting [3]) it was 1.5 µM; with HFL1 (setting [4]) it was 1.2 µM; in the assay on PC14 (setting [5]), 0.57 µM; on SUV39H2, 0.0267 µM.
Regarding `COc1cc(OC)c(-c2cn3ccc(NC(=O)[C@H](C(C)C)N(C)C)cc3n2)cc1Cl` [Example 272, (S)—N-(2-(5-chloro-2,4-dimethoxyphenyl)imidazo[1,2-a]pyridin-7-yl)-2-(dimethylamino)-3-methylbutanamide], the IC50 with A549 (A549, 72 h) came out at 0.86 µM; in the assay on CCD-18Co (CCD-18Co, 72 h), 0.47 µM; in the assay on HCT-116 (HCT-116, 72 h), 2.9 µM; with HFL1 (HFL1, 72 h), 0.45 µM; in the assay with PC14 (PC-14, 72 h), 0.98 µM; on SUV39H2 it was 0.0961 µM.
Take `COc1cc(OC)c(-c2cn3ccc(N4CCN(C(=O)OC(C)(C)C)C(C)C4)cc3n2)cc1Cl` (stereo not drawn) [Example 275, tert-butyl 4-(2-(5-chloro-2,4-dimethoxyphenyl)imidazo[1,2-a]pyridin-7-yl)-2-methylpiperazine-1-carboxylate]: the IC50 in the assay with A549 (setting [1]) turned out to be 1.3 µM; with CCD-18Co (setting [2]) it was 1.4 µM; in the assay on HCT-116 (setting [3]), 1.4 µM; with HFL1 (setting [4]), 1.1 µM; with PC14 (setting [5]) it was 0.87 µM; at SUV39H2 it was 0.00333 µM.
In the case of `COc1cc(OC)c(-c2cn3ccc(N4CCN(c5ccccn5)CC4)cc3n2)cc1Cl` [Example 276, 2-(5-chloro-2,4-dimethoxyphenyl)-7-(4-(pyridin-2-yl)piperazin-1-yl)-imidazo[1,2-a]pyridine], the IC50 in the assay on A549 (setting [1]) was determined as 1.2 µM; in the assay on CCD-18Co (setting [2]) it was 1.1 µM; in the assay with HCT-116 (setting [3]) it was 0.71 µM; with HFL1 (setting [4]), 0.69 µM; in the assay with PC14 (setting [5]) it was 1.2 µM; at SUV39H2, 0.00774 µM.
For the molecule `COC(=O)N[C@H]1CC[C@H](Nc2ccn3cc(-c4cc(Cl)c(OC)cc4OC)nc3c2)CC1` [Example 277, (methyl-4-((2-(5-chloro-2,4-dimethoxyphenyl)imidazo[1,2-a]pyridin-7-yl)amino)-trans-cyclohexyl)carbamate], the IC50 is 0.98 µM in the assay on A549 (setting [1]); 0.78 µM with CCD-18Co (setting [2]); 0.8 µM in the assay with HCT-116 (setting [3]); 0.7 µM with HFL1 (setting [4]); 0.93 µM in the assay on PC14 (setting [5]); 0.00524 µM at SUV39H2.

One may read the IC50 as the concentration needed to halve the response being measured.
